# Experiments:
# [1] = test system: GiPCR signaling; test: GiPCR signaling after LPA stimulation in osteoblasts of AIS patients (CD44 CT SNP) and healthy controls in the presence of rOPN; assay type: cell-based, human; settings: same rOPN treatment
# Method: Next, the effect of the CT SNP on GiPCR signaling was assessed. Osteoblasts from severe AIS patients (who underwent surgery) carrying the CT SNP and osteoblasts from healthy controls with wild type CD44 (CC) were stimulated with LPA in the presence of recombinant OPN (rOPN). The GiPCR defective signaling effect in response to the same rOPN treatment was […] 50% more in mutated CD44 (CT) osteoblasts as compared to in wild type CD44 (CC) osteoblasts (FIG. 9 A). […] The CT mutation in CD44 thus increases the sensitivity of scoliotic patients to the damaging effects of OPN on GiPCR signaling and thereby contributes the more severe phenotype observed in these subjects.
# [2] = test system: Gi1, Gi2, Gi3 proteins; test: Immunoprecipitation/Western blot: phosphorylation of Gi proteins in MC3T3-E1 cells; assay type: cell-based; settings: rOPN vs PBS
# Method: Given that the defective GiPCR signaling associated with idiopathic scoliosis has causatively been related to increased phosphorylation of Gi proteins (Moreau et al., 2004), it was of interest to examined whether OPN influences the phosphorylation status of Gi proteins. Accordingly, MC3T3-E1 cells were treated with rOPN, then cell lysates were immunoprecipitated with antibodies against Gi1, Gi2 or Gi3 protein isoforms, and the phosphorylation level was examined by Western blot using anti-phospho serine/threonine or anti-tyrosine antibodies. […] However, band density was higher in OPN-treated cells.
# To support the involvement of α5β1 integrin in this process, cells were pre-treated with antibody against α5β1 integrin prior to rOPN treatment.
# Cell extracts prepared from MC3T3-E1 that had been treated with rOPN in the presence or absence of an inhibitor specific for each kinase were subjected to immunoprecipitation and Western blot analysis. […] However, both serine and tyrosine phosphorylation were attenuated by inhibitors of FAK (FAK inhibitor-14), Scr (PP2), CaMKII (KN93), PI3K (wortmannin-data not shown), MEK (PD98059), ERK1/2 (FR180204), JNK (SP60125) and P38 (SB203580).
# [3] = test system: Gs protein; test: Immunoprecipitation/Western blot: Gs protein tyrosine phosphorylation and association with receptors in MC3T3-E1 cells; assay type: cell-based
# Description: Taken into account these considerations and having observed that genetic deletion of OPN inversely influenced response to Gi and Gs stimulation (FIG. 1), it was of interest to examine the effect of OPN on the functional and phosphorylation status of Gs protein and on its interaction with receptors. For this purpose, cells were subjected to isoproterenol and desmopressin in the presence of rOPN or PBS. As expected, response to isoproterenol was higher in rOPN than in PBS-treated cells.
# [4] = test system: Gi proteins with MO, MT2 or β1 integrin receptors; test: Immunoprecipitation/Western blot: interaction of Gi proteins with GPCR and β1 integrin in MC3T3-E1 cells; assay type: cell-based
# Method: MC3T3-E1 cells were treated with PBS or rOPN (0.5 μg/ml) then the whole cell proteins (1 mg) were incubated with anti-MOR (Abcam Toronto, ON, Canada), anti-MT2 or anti-[…] (Santa Cruz Biotechnology), plus protein G beads for immunoprecipitation (IP) at 4° C. overnight. Purified proteins were loaded on 10% gel after IP, then, processed for gel transferring to PVDF membrane and 5% BSA blocking. Membranes were exposed to antibodies specific for Gi1, Gi2, Gi3, MOR, MT2 and β1 integrin at 4° C. overnight and, subsequently, treated with secondary antibody at room temperature for 1 h. Bands were visualized using SuperSignal™ chemiluminescent (Pierce, Rockford, Ill.) and quantified by densitometric scanning.
# It is notable that when different receptors signal through the same subfamily of G proteins, they share the same limited pool of G proteins. Therefore, if OPN enhances the recruitment of Gi proteins in the β1 integrin complex, reduction in the amount of Gi proteins in GiPCR complex would be expected. To evaluate this possibility, cells lysates were immunoprecipitated with antibodies against MO, MT2 or β1 integrin receptors, and the presence of Gi proteins in each precipitate was examined by Western blot using antibodies specific for Gi1, Gi2 or Gi3 isoform. […]
# [5] = test system: GiPCR signaling; test: CDS integrated response to GiPCR ligands in MC3T3-E1 osteoblastic cell line; assay type: cell-based; settings: MC3T3-E1 cells treated with rOPN prior to stimulation
# Method: The functional evaluation of Gi, Gs and Gq proteins was assessed by CDS assays using osteoblasts cells derived from C57Bl/6j WT and C57Bl/6j OPN^−/− mice (bipedal and quadrupedal) using CellKey™ apparatus, as previously described (Akoume et al., 2010, and WO 2010/040234 to Moreau et al.).
# MC3T3-E1 cells were used to check the effect of the knockdown of OPN and its receptors. MC3T3-E1 osteoblasts cells were transiently transfected in serum-free medium, using Lipofectamine™ RNAiMAX reagent (Invitrogen) according to the manufacturer's instructions and functional experiments were performed 48 h post transfection. The sequence of RNA oligonucleotides used for the knockdown of different genes are, ssp1 (encodes OPN) (CCACAGCCACAAGCAGUCCAGAUUA (SEQ ID NO: 9)), integrin β1 (CCUAAGUCAGCAGUAGGAACAUUAU (SEQ ID NO: 10)), integrin β3 (CCUCCAGCUCAUUGUUGAUGCUUAU (SEQ ID NO: 11)), integrin α5 (CCGAGUACCUGAUCAACCUGGUUCA (SEQ ID NO: 12)), integrin α8 (GAGAUGAAACUGAAUUCCGAGAUAA (SEQ ID NO: 13)), integrin αv (GACUGUUGAGUAUGCUCCAUGUAGA (SEQ ID NO: 14 and CD44 (GAACAAGGAGUCGUCAGAAACUCCA (SEQ ID NO: 15)). Two other siRNAs against integrin α5 were tested (UCCACCAUGUCUAUGAGCUCAUCAA (SEQ ID NO:16) and UCAGGAGCAGAUUGCAGAAUCUUAU (SEQ ID NO:17)).
# To further investigate the role of OPN in Gi protein-mediated receptor signaling, several lines of experiments were performed using MC3T3-E1 osteoblastic cell line. Since these cells express OPN, was first examined whether depletion of OPN by siRNA influences the capacity of GiPCR ligands to induce cell signaling as measured by CDS in MC3T3-E1 cells. […] Similar results were obtained when cells were stimulated with oxymethazolin. […] To confirm this hypothesis, cells were treated with exogenous recombinant OPN (rOPN) prior to DAMGO and oxymethazolin stimulation.
# [6] = rOPN-treated vs PBS-treated cells
substance,measurement,setting,value
rOPN: exogenous recombinant osteopontin (R&D systems),additional reduction of GiPCR signaling in mutated CD44 (CT) vs wild type CD44 (CC) osteoblasts,[1],50%
same,phosphorylated serine and tyrosine residues in Gi precipitates (band density),[2],higher
same,presence of Gs proteins in the immunoprecipitates of MT2 and MO receptors,[3]; rOPN treatment,enhances
same,Gs protein immunoprecipitates probed with anti-tyrosine antibody,[3]; [6],higher intensity
same,amount of Gi protein isoforms in the β1 integrin precipitates,[4]; following rOPN treatment,elevated
same,relative amount of Gi isoforms immunoprecipitated with MO or MT2 receptor,[4]; [6],reduced
same,integrated response to DAMGO and oxymethazolin after rOPN treatment,[5],decrease in the integrated response in a concentration-dependent manner
